Data taken from patent publication US20030186943A1, “Substituted gamma-phenyl-delta-lactams and uses related thereto” (Inflazyme Pharmaceuticals Ltd., priority 1998, published 2003).

How the values were obtained:
[1] = tested on: High Affinity Rolipram Binding Site of PDE4 in Mouse Brain; experiment: Displacement of [3H]-rolipram from its high affinity binding site (HARBS); conditions: ratio of IC50 for PDE4 catalytic activity to concentration displacing 50% of rolipram from HARBS
Experimental: Suspension was centrifuged twice at 30,000×G at 4° C. and the supernatant discarded. The pellet was resuspended in buffer, and adjusted to a protein concentration of 0.5 mg/mL. Drugs to be tested were dissolved in DMSO and pipetted in triplicate into a 96 well microplate at concentrations ranging from 1 to 30,000 nM. […] The plate was incubated at 4° C. for 1 hour. Contents of the plate were aspirated through a Whatman GF/C filterplate, and rinsed with 4×200 μL ice-cold buffer. […] Triplicate determinations were performed at each concentration.

[2] = tested on: K562 chronic myelogenous leukemia cells; experiment: Anti-proliferative activity in K562 cells (3H-thymidine uptake); format: cell-based, human
Experimental: 90 μL K562 cells (human chronic myelogenous leukemia cells) were seeded into sterile 96-well assay plates at a density of 1×10^5 cells/mL in RPMI 1640 supplemented with 10% FBS/2 mM L-glutamine. Samples to be tested were prepared in a sterile 96-well assay plate at 10×the final concentration desired. All sample dilutions contained equal amounts of DMSO to compensate for the % DMSO in the highest sample concentration used. Nine concentrations of test compound were examined for effects on growth up to a maximal concentration of 100 μM. 10 μL of the samples and controls (DMSO/normal growth control) were added to the aliquoted cells. The cells were incubated at 37° C./5% CO2 for 48 hours. Following 48 hour incubation, 20 μL of 3H-thymidine was added to each well for a final concentration of 1 μCi/mL. The cells were then incubated at 37° C./5% CO2 for 4 to 6 hours. Following 4-6 hour thymidine pulse, plates were wrapped in plastic and frozen in a −20° C. frost-free freezer overnight. Cells were harvested and ^3H-thymidine counts determined. In order to distinguish between cytotoxicity and cytostatic activity, growth curves were prepared where the average CPM value of the seeding density of cells was plotted on the same curve as the average CPM value for the maximum proliferation attained after 48 hours (DMSO growth control cells). The cells were diluted 1:2 for a concentration range of 7.8×10^3 cells/mL to 2×10^6 cells/mL. 90 μL of each cell dilution was seeded in sterile 96-well assay plated and allowed to equilibrate for approximately 4 hours at 37° C./5% CO2 prior to ^3H-thymidine pulse. The data in Table 15 was obtained as described above, and more specifically, K562 cells were seeded into 96-well plates at 1×10^5 cells/mL in RPMI 1640 supplemented with 10% FBS/2 mM L-glutamine. Various concentrations of test compound or vehicle (DMSO) was added and the cells were incubated at 37° C./5 CO2 for 48 hours. The cells were then pulsed at 37° C./5% CO2 for 4 to 6 hours with 1 μCi/mL ^3H-thymidine. Radioactivity incorporated into DNA was determined after harvesting onto glass fiber filters and scintillation counting.

[3] = target: T1, cAMP phosphodiesterase 3 from human platelets (Homo sapiens, UniProt Q14432); experiment: Inhibition of cAMP phosphodiesterase 3 from human platelets; format: biochemical; conditions: PDE3, platelet cell extract; X marks this range; read-out: IC50 range (μM) 10-100
T1 construct: from tissue; host or cells: human platelets, cytoplasmic extract
T1 sequence (Q14432 whole entry): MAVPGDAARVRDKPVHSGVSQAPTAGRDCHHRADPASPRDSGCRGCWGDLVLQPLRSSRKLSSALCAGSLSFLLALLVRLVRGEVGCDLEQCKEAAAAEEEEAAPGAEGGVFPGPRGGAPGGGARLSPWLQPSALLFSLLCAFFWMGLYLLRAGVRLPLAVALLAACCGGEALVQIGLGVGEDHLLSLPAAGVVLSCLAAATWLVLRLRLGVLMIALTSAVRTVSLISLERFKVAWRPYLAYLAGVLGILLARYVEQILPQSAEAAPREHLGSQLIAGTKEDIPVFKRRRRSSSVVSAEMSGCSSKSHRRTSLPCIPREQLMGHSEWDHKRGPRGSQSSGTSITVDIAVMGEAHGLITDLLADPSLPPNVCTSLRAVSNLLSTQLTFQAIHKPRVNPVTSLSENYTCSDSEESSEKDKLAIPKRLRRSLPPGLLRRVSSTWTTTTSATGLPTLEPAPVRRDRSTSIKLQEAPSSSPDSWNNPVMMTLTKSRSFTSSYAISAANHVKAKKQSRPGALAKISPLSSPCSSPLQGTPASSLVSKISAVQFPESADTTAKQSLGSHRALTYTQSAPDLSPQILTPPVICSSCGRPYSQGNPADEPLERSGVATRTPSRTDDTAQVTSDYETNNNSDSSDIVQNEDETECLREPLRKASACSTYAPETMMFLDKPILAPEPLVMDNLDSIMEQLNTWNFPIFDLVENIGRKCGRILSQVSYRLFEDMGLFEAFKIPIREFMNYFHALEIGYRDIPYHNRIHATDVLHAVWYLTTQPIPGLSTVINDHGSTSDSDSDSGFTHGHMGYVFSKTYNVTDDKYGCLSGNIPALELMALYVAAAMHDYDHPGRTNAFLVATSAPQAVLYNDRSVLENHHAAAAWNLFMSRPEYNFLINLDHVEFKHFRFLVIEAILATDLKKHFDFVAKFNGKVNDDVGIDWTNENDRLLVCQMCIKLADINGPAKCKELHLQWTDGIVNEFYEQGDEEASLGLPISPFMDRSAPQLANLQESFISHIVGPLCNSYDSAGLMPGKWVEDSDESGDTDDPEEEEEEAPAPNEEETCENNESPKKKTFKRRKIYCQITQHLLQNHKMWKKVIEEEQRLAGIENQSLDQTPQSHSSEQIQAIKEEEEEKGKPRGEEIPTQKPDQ
Text: Compound 12 was screened for activity against 5 of the major classes of mammalian cyclic nucleotide phosphodiesterase (termed PDE 1 through 5). PDE's 1 through 4 utilize cAMP as substrate while PDE 5 uses cGMP. The broad specificity PDE inhibitor 3-isobutyl-1-methylxanthine (IBMX; Sigma; Catalogue No. 17018)) was used as a positive control in all assays. PDE's for the various assays were partially purified from the following cells/tissues; PDE 1 (bovine heart), PDE 2 (human platelets), PDE 3 (human platelets), PDE 4 (human promonocytic U937 cells) and PDE 5 (human platelets).
Platelet cell extracts were prepared as described above for the U937 cells. The PDE3 assay was performed using platelet cell extract as described above for the PDE 4 assay. Platelets contain PDE 2, 3 and 5. However PDE2 and 5 preferentially utilize cGMP, so in an assay with cAMP as a substrate they are not detected.

[4] = tested on: primary human neutrophils; experiment: Generation of reactive oxygen species by fMLP-activated neutrophils (luminol-enhanced chemiluminescence); format: cell-based; conditions: Neutrophil, read-out: IC50 RANGE (μM) <1, ROS production, X marks this range
Text: Neutrophil activation can be measured by quantitation of ROS generated in vitro. Measurement of ROS allows specific quantitation of a pro-inflammatory species and is also a general measure of neutrophil activation. The most sensitive method for measuring the production of ROS by neutrophils is luminol-enhanced chemiluminescence. […] The assay system used to evaluate the ability of compounds to inhibit ROS generation in neutrophils is indicative of anti-inflammatory activity that may be efficacious in disease states including but not limited to rheumatoid arthritis and inflammatory bowel disease.
Freshly isolated primary human neutrophils (5×10^6 cells/mL) were incubated with the required concentrations of compound or vehicle for 30 minutes at 37° C. in HBSS buffer (pH 7.4) containing Ca^2+. 100 nM wortmannin was used as a positive control. Aliquots of each sample were transferred to a microtitre plate to which luminol (1 μM); obtained from Sigma; Catalogue No. A8511 is added. Activation of the neutrophils was immediately initiated by addition of (1 μM) fMLP; obtained from Sigma, Catalogue No. F3506. Light output from each well was recorded for 30 minutes in a microplate luminometer. Total light output (integral of the time-course) was determined for each well. Inhibitory activities of test drugs against neutrophil ROS generation is expressed as percentage activity relative to a no drug control (100% activation or generation of ROS) containing 0.25% DMSO. Concentration of test compound required to inhibit the generation of ROS to 50% of control values (IC50's) were determined from concentration-response curves by non-linear regression analysis.

[5] = tested on: primary human neutrophils; experiment: fMLP-induced human neutrophil chemotaxis; format: cell-based; conditions: fMLP-induced chemotaxis, X marks this range, read-out: IC50 RANGE (μM) 10-100
Experimental: Chemotaxis buffer containing the chemoattractant fMLP (10 μM) was added to each well of a chemotaxis plate and a filter was inserted ensuring contact between the filter and the chemotaxis buffer in the well. A submaximal concentration of chemoattractant was used which had been determined in previous experiments. […] Freshly isolated neutrophils (1×10^6) were incubated with vehicle (0.125% DMSO)±test compound for 1 hr at 37° C. Treatment and control cell suspensions were then gently resuspended and 20 μL of cells was added to the top side of the filter on each well. The plate was incubated for 1.5 hours at 37° C. under 5% CO2. Cells were then removed from the top side of the filter by aspiration and the entire plate was centrifuged. The filter was removed and known concentrations of cells were added to unused wells to prepare a standard curve. XTT (Sigma; Catalogue No. X 4251)/PMS (Sigma; Catalogue No. P 7626) solution prepared in buffer was added to each well and the cells were further incubated 1-2 hours and measured for absorbance at 450 nm. Absorbance values were converted to cell numbers using the standard curve. IC50 values are averages from at least three separate experiments with triplicate determinations.

[6] = tested on: cAMP response element luciferase activity in human U937 monocytic cells; experiment: Potentiation of forskolin-induced CRE-luciferase activity in U937 cells; format: cell-based; conditions: U-937, U937 cells co-incubated with 10 μM forskolin, 4 hours, X marks this range, read-out: EC50 range (μM) 1-25
Experimental: Compounds of the present invention were thereby shown to provide potentiated luciferase expression in U937 cells treated with the adenylyl cyclase activator forskolin.
Human pro-monocytic U937 cells were maintained in RPMI medium containing 10% FCS and 2 mM […]. U937 cells were transiently transfected as described in Biotechniques Vol. 17(6):1058, 1994. Briefly, cells were grown in medium containing serum to a density of 5×10^6 cells/mL and then resuspended in media containing serum at a density of approximately 1×10^7 cells/mL. 400 μL of cells were transferred into the electroporation cuvette containing 10 μg of the reporter vector (PCRE-luc) in a volume of 40 μL H2O. Reporter vector DNA was prepared from DH5α E. coli using the DNA […] free kit (Qiagen) as per manufacturers instructions. U937 cells were clectroporated at room temperature using a BIORAD electroporator. Capacitance was set to 1050 μF and voltage was 280V. The time constant was noted after each electroporation. Cells were then diluted in 4 mL of media and serum and 200 μL of cells were plated per well. Cells were allowed to recover for 16-18 hours. Cells were then treated with a test compound or vehicle in the presence or absence of 10 μM forskolin for 4 hours at 37° C.
The luciferase assay was performed as per manufacturers instructions (Tropix). Briefly, cells were centrifuged for 4 minutes at 1200 rpm and media supernatant was removed. Cell pellets were lysed in 15 μL Lysis buffer (Tropix). Luciferase assay was performed using 10 μL of cell lysate with 10 μL of buffer A and 25 μL buffer B. Luciferase activity was obtained using a luminometer with a 5-second delay followed by a read time of 10 seconds.

[7] = tested on: Resiniferitoxin-induced mouse ear edema; experiment: Resiniferitoxin-induced mouse ear edema; format: in vivo; conditions: Mus musculus; topical administration, 50 μg/ear, RTX 0.1 μg/ear, CD1 mice
Text: One of the primary characteristics of inflammation is an increase in vascular dilation and permeability leading to the extravasation of, and collection of fluids in, the interstitium, resulting in redness and swelling. Rheumatoid arthritis in particular is characterized by pronounced edema of affected joints resulting in significant pain and stiffness. The mouse ear inflammation model is a standard in vivo assay for inflammation that is based on an increase in ear weight which is attributable to edema induced by inflammatory mediators. RTX (resiniferitoxin; Sigma; Catalogue No. R 8756)) is a diterpene isolated from the plant Euphorbia poisonii and is an ultrapotent analog of capsaicin. RTX acts by selectively stimulating nociceptive and thermal-sensitive nerve ending in tissue, eliciting neurogenic edema. Compounds of the present invention, whether administered topically, intraperitoneally or orally, inhibited development of edema induced by topical application of RTX.
Mice (CD1, Charles River Laboratories) were separated into groups (n—5−8) and tagged. Control mice had RTX (0.1 μg/ear) applied topically to the inner and outer sides of the left ear and vehicle applied to the right ear as a control. For topical administration, experimental/treatment mice received RTX+test compound solution (50 μg/ear) on the left ear and acetone on the right ear. For intraperitoneal (i.p.) administration, 100 mg/kg test compound dissolved in 100 μL PEG 200:saline (1:1) was injected followed by a 30 minute waiting period then the standard 30 minute RTX edema induction. For oral (p.o.) administration, 10 mg/kg test compound in 100 μL PEG-200 was given to animals, then edema induced using 0.1 μg/ear RTX after a 1.5 hour waiting period. After edema induction, mice were sacrificed, and a standard disc of ear tissue was removed. Each disk of tissue was immediately weighed to the nearest 1/10th of a mg. Data were analyzed by taking the difference of each left ear from the right ear, calculating the mean+/−SEM. Statistical significance was tested by 2-sample t-test on the left/right ear weight differences of the control group vs. the experimental group.

COc1ccc([C@H]2COC(=O)C(Cc3ccc(O)c(O)c3)C2)cc1OC1CCCC1 (some centres unmarked) [Compound 179]
PDE4:HARBS [1]: <1
effect on proliferative ability / cell cycle of K-562 cells [2]: cell cycle arrest

COc1cc(C[C@H]2C[C@@H](c3ccc(OC)c(OC)c3)COC2=O)ccc1O [Compound 29]
IC50 [3]: 10 to 100 µM
IC50 [4]: < 1 µM
IC50 [5]: 10 to 100 µM
PDE4:HARBS [1]: <1
EC50 [6]: 1 to 25 µM
inhibition in vivo at 50 µg/ear [7]: 76%
